Results taken from patent publication US11466044B2 (WAYNE STATE UNIVERSITY, priority 2017, dated 2022).
Values after ≈ are worked out from the molar mass of the structure shown. Counter-ions that a name gives are not always drawn. Like-named read-outs stand apart in the source and are kept apart here.

Legend:
MRSA = assay: MIC by broth microdilution, MRSA isolates; type: cell-based; conditions: Staphylococcus aureus, MRSA
E coli wild type = assay: MIC by broth microdilution, wild type E coli; type: cell-based; conditions: Escherichia coli; for MIC50: Table 1 (Example 1)
P aeruginosa = assay: MIC by broth microdilution, P aeruginosa isolates; type: cell-based, Pseudomonas aeruginosa; conditions: for MIC50: Pseudomonas aeruginosa; for MIC: strain AG220 Pseudomonas aeruginosa ATCC27853, read-out: MIC AG220 P. aerugin
[1] = system: E coli carrying specific resistance determinants; assay: MIC by broth microdilution, E coli carrying specific resistance determinants; type: cell-based; conditions: Escherichia coli
[2] = system: wild type bacterial ribosomes; assay: in-vitro translation assay, bacterial ribosomes; type: biochemical; conditions: bacterial ribosome; Table 3 (Example 1); read-out: IC50 Bac
Excerpt: (§1) The antiribosomal activity of these compounds was investigated with cell-free translation assays using both wild type bacterial ribosomes and hybrid ribosomes carrying eukaryotic decoding A sites enabling the prediction of selectivity.

[3] = system: cytosolic ribosome (human chimeric); type: biochemical; conditions: cytosolic; Table 3 (Example 1); read-out: IC50 Cyt
Excerpt: as §1

[4] = system: mitochondrial ribosome (human chimeric); type: biochemical; conditions: mitochondrial; Table 3 (Example 1); read-out: IC50 Mit
Excerpt: as §1

[5] = system: Klebsiella pneumonia AG215; assay: MIC by broth microdilution, Klebsiella pneumonia; type: cell-based; conditions: Klebsiella pneumoniae; strain AG215 Klebsiella pneumonia; read-out: MIC AG215 K. pneumon
[6] = system: Acinetobacter baumannii pittii AG225; assay: MIC by broth microdilution, Acinetobacter baumannii; type: cell-based; conditions: strain AG225 Acinetobacter baumannii pittii
[7] = system: Enterobacter cloacae AG290; assay: MIC by broth microdilution, Enterobacter cloacae; type: cell-based; conditions: strain AG290 Enterobacter cloacae; read-out: MIC AG290 E. cloacae
N. gonorrhoeae = assay: Disk diffusion, N. gonorrhoeae; type: cell-based; conditions: Neisseria gonorrhoeae
M. smegmatis SZ380 = assay: MIC by broth microdilution, M. smegmatis; conditions: Mycolicibacterium smegmatis, SZ380, read-out: MIC SZ380 M. smegmatis, strain SZ380 Mycobacterium smegmatis
[8] = strain AG38, Table 1 (Example 1), read-out: MIC50 MRSA AG38
[9] = strain AG44, Table 1 (Example 1), read-out: MIC50 MRSA AG44
[10] = AG006 wt, Table 2 (Example 1), read-out: MIC E coli AG006 wt
[11] = AG102 wt, Table 2 (Example 1), read-out: MIC E coli AG102 wt
[12] = AG160 wt, Table 2 (Example 1), read-out: MIC E coli AG160 wt
[13] = ATCC25922, strain AG212 E. coli (ATCC25922), read-out: MIC AG212 E. coli
[14] = WT, Table 3 (Example 1), read-out: MIC WT
[15] = clinical isolate AG160 WT, Table 2 (Example 4), read-out: MIC AG160 E. coli WT
[16] = engineered strain pH430 WT, Table 2 (Example 4), read-out: MIC pH430 E. coli WT
[17] = strain AG01, read-out: MIC50 E coli AG01
[18] = strain AG03, read-out: MIC50 E coli AG03
[19] = strain AG55, read-out: MIC50 E coli AG55
[20] = read-out: MIC AG037 E. coli APH(3′)-III
[21] = read-out: MIC AG163 E. coli APH(3′)-I
[22] = read-out: MIC AG166 E. coli APH(3′)-II
[23] = read-out: MIC E coli AG007 ANT(3″) AAC(3)-I
[24] = read-out: MIC E coli AG103 ArmA
[25] = read-out: MIC E coli AG163/164 APH(3′)-Ia
[26] = read-out: MIC E coli AG166 APH(3′)-IIa
[27] = read-out: MIC pH421 E. coli APH(3′)-I
[28] = read-out: MIC pH422 E. coli APH(3′)-II
[29] = read-out: MIC pH423 E. coli APH(3′)-VI

## NC[C@@H]1O[C@H](O[C@@H]2C(O)[C@H](O[C@@H]3C(O)[C@H](N)CC(N)[C@H]3O[C@H]3OC(CO)[C@@H](O)[C@H](O)C3N)O[C@@H]2CNC=O)C(N)C(O)[C@@H]1O (stereo partly drawn) [Compound 137, 5″-Deoxy-5″-formamido-paromomycin acetate salt]
MRSA; read-out: MIC50 MRSA AG39
  MIC50: > 128 µg/mL
MRSA; read-out: MIC50 MRSA AG42
  MIC50: > 128 µg/mL
MRSA; [8]
  MIC50: 4 µg/mL
MRSA; [9]
  MIC50: 2 to 4 µg/mL
E coli wild type; [10]
  MIC: 1 µg/mL
E coli wild type; [11]
  MIC: 1 µg/mL
E coli wild type; [12]
  MIC: 2 µg/mL
E coli wild type; [13]
  MIC: 2 µg/mL
E coli wild type; [14]
  MIC: 1 to 2 µg/mL
E coli wild type; [15]
  MIC: 2 µg/mL
E coli wild type; [16]
  MIC: 1 to 2 µg/mL
E coli wild type; [17]
  MIC50: 4 µg/mL
E coli wild type; [18]
  MIC50: 4 µg/mL
E coli wild type; [19]
  MIC50: 4 µg/mL
P aeruginosa; read-out: MIC50 P aeruginosa AG31
  MIC50: 128 µg/mL
P aeruginosa; read-out: MIC50 P aeruginosa AG32
  MIC50: 128 µg/mL
P aeruginosa; read-out: MIC50 P aeruginosa AG33
  MIC50: > 128 µg/mL
P aeruginosa; read-out: MIC50 P aeruginosa AG86
  MIC50: > 128 µg/mL
P aeruginosa
  MIC: > 64 µg/mL
[1]; [20]
  MIC: 128 µg/mL
[1]; [21]
  MIC: 64 µg/mL
[1]; [22]
  MIC: > 128 µg/mL
[1]; read-out: MIC APH(3)-VI
  MIC: > 64 µg/mL
[1]; read-out: MIC APH(3′)-I
  MIC: > 64 µg/mL
[1]; read-out: MIC APH(3′)-II
  MIC: > 64 µg/mL
[1]; read-out: MIC APH(3′)-III
  MIC: > 64 µg/mL
[1]; [23]
  MIC: 4 µg/mL
[1]; [24]
  MIC: 8 µg/mL
[1]; [25]
  MIC: 32 to 64 µg/mL
[1]; [26]
  MIC: > 128 µg/mL
[1]; [27]
  MIC: > 64 µg/mL
[1]; [28]
  MIC: > 64 µg/mL
[1]; [29]
  MIC: > 64 µg/mL
[2]
  IC50: 0.04 µM
[3]
  IC50: 90 µM
[4]
  IC50: 144 µM
[5]
  MIC: 1 µg/mL
[6]
  MIC: 2 µg/mL
[7]
  MIC: 1 to 2 µg/mL
N. gonorrhoeae
  zone of inhibition at 25 nmol/disc: 11 mm
M. smegmatis SZ380
  MIC: 1 µg/mL

## NCC1OC(OC2C(CNC=O)OC(OC3C(O)C(N)CC(N)C3OC3OC(CO)C(O)CC3N)C2O)C(N)C(O)C1O (stereo not drawn) [Compound 153, 3′,5″-Dideoxy-5″-formamido-paromomycin]
MRSA; [8]
  MIC50: 4 µg/mL (≈ 6.38 µM)
MRSA; strain AG39, Table 1 (Example 1), read-out: MIC50 MRSA AG39
  MIC50: > 128 µg/mL
MRSA; strain AG42, Table 1 (Example 1), read-out: MIC50 MRSA AG42
  MIC50: > 128 µg/mL
MRSA; [9]
  MIC50: 4 µg/mL (≈ 6.38 µM)
E coli wild type; [10]
  MIC: 2 µg/mL (≈ 3.19 µM)
E coli wild type; [11]
  MIC: 2 µg/mL (≈ 3.19 µM)
E coli wild type; [12]
  MIC: 2 to 4 µg/mL (≈ 3.19 to 6.38 µM)
E coli wild type; [13]
  MIC: 4 µg/mL (≈ 6.38 µM)
E coli wild type; [14]
  MIC: 2 µg/mL (≈ 3.19 µM)
E coli wild type; [15]
  MIC: 2 to 4 µg/mL (≈ 3.19 to 6.38 µM)
E coli wild type; [16]
  MIC: 2 µg/mL (≈ 3.19 µM)
E coli wild type; [17]
  MIC50: 8 to 16 µg/mL (≈ 12.8 to 25.5 µM)
E coli wild type; [18]
  MIC50: 8 µg/mL (≈ 12.8 µM)
E coli wild type; [19]
  MIC50: 8 to 16 µg/mL (≈ 12.8 to 25.5 µM)
P aeruginosa; strain AG31, Table 1 (Example 1), read-out: MIC50 P aeruginosa AG31
  MIC50: 32 to 64 µg/mL (≈ 51.1 to 102 µM)
P aeruginosa; strain AG32, Table 1 (Example 1), read-out: MIC50 P aeruginosa AG32
  MIC50: 32 µg/mL (≈ 51.1 µM)
P aeruginosa; strain AG33, Table 1 (Example 1), read-out: MIC50 P aeruginosa AG33
  MIC50: > 32 µg/mL
P aeruginosa
  MIC: 8 µg/mL (≈ 12.8 µM)
[1]; [20]
  MIC: 2 µg/mL (≈ 3.19 µM)
[1]; [21]
  MIC: 4 to 8 µg/mL (≈ 6.38 to 12.8 µM)
[1]; [22]
  MIC: 8 to 16 µg/mL (≈ 12.8 to 25.5 µM)
[1]; read-out: MIC APH(3)-VI
  MIC: 2 to 4 µg/mL (≈ 3.19 to 6.38 µM)
[1]; read-out: MIC APH(3′)-I
  MIC: 2 µg/mL (≈ 3.19 µM)
[1]; read-out: MIC APH(3′)-II
  MIC: 2 µg/mL (≈ 3.19 µM)
[1]; read-out: MIC APH(3′)-III
  MIC: 2 µg/mL (≈ 3.19 µM)
[1]; [23]
  MIC: 4 µg/mL (≈ 6.38 µM)
[1]; [24]
  MIC: 32 µg/mL (≈ 51.1 µM)
[1]; [25]
  MIC: 4 to 8 µg/mL (≈ 6.38 to 12.8 µM)
[1]; [26]
  MIC: 8 to 16 µg/mL (≈ 12.8 to 25.5 µM)
[1]; [27]
  MIC: 2 µg/mL (≈ 3.19 µM)
[1]; [28]
  MIC: 4 µg/mL (≈ 6.38 µM)
[1]; [29]
  MIC: 2 to 4 µg/mL (≈ 3.19 to 6.38 µM)
[2]
  IC50: 0.12 µM
[3]
  IC50: 90 µM
[4]
  IC50: 144 µM
[5]
  MIC: 1 to 2 µg/mL (≈ 1.6 to 3.19 µM)
[6]
  MIC: 4 µg/mL (≈ 6.38 µM)
[7]
  MIC: 2 µg/mL (≈ 3.19 µM)
N. gonorrhoeae
  zone of inhibition at 25 nmol/disc: 13 mm
M. smegmatis SZ380
  MIC: 1 µg/mL (≈ 1.6 µM)
